Experimental data reported in patent US11311522B1 (Cavion, Inc., priority 2018, dated 2022).

Experiment: PN002/Part II: safety and tolerability
Format: in vivo
Description: Clinical safety was monitored throughout the study by adverse events, clinical laboratory tests, vital signs, ECGs, and ECG telemetry.
The subject was not on telemetry at the time.

In the case of `CC(C)c1ccc(CC(=O)N[C@H](C)c2ccc(OCC(F)(F)F)cn2)cc1` [CX-8998], the “Abnormal sensation of limbs” value (12 mg/d) is reported as 0 n %, the Anger (12 mg/d) is reported as 0 n % and the Application site erythema (12 mg/d) is reported as 1 (16.7) n %. The Application site pruritus (12 mg/d) was 1 (16.7) n %, the “At least 1 adverse event” value (12 mg/d) was 6 (100) n % and the Backache (12 mg/d) was 0 n %. The Clamminess (12 mg/d) was 0 n %, the Daydreaming (12 mg/d) was 0 n % and the Disorientation (12 mg/d) was 0 n %. For the same compound, the Dizziness (12 mg/d) was 1 (16.7) n %, the Drowsiness (12 mg/d) was 0 n % and the Dyspepsia (12 mg/d) was 0 n %. For the same compound, the Euphoric mood (12 mg/d) was 0 n %, the “Eye Disorders” value (12 mg/d) was 1 (16.7) n % and the Feeling drunk (12 mg/d) was 0 n %. For the same compound, the Feeling of relaxation (12 mg/d) was 2 (33.3) n %, the Floating feeling (12 mg/d) was 0 n % and the Fuzzy head (12 mg/d) was 0 n %. The “Gastrointestinal Disorders” value (12 mg/d) was 1 (16.7) n %, the Hallucination (12 mg/d) was 0 n % and the Headache (12 mg/d) was 1 (16.7) n %. The Heaviness of head (12 mg/d) was 1 (16.7) n %, the Hyperactivity (12 mg/d) was 1 (16.7) n % and the Hypoaesthesia mouth (12 mg/d) was 0 n %. For the same compound, the “Increased state of alertness” value (12 mg/d) was 0 n %, the Intermittent headache (12 mg/d) was 1 (16.7) n % and the Lethargy (12 mg/d) was 0 n %. The Lightheadedness (12 mg/d) was 0 n %, the Mood altered (12 mg/d) was 1 (16.7) n % and the Mood change (12 mg/d) was 0 n %. The “Musculoskeletal and Connective Tissue Disorders” value (12 mg/d) was 1 (16.7) n %, the Nausea (12 mg/d) was 0 n % and the “Nervous System Disorders” value (12 mg/d) was 2 (33.3) n %. The Paraesthesia generalized (12 mg/d) was 0 n %, the Paranoia (12 mg/d) was 0 n % and the “Psychiatric Disorders” value (12 mg/d) was 2 (33.3) n %. The “Respiratory, Thoracic and Mediastinal Disorders” value (12 mg/d) was 0 n %, the Sedation (12 mg/d) was 0 n % and the Sensation of heaviness (12 mg/d) was 0 n %. For the same compound, the Sensation of pressure (12 mg/d) was 0 n %, the “Skin and Subcutaneous Tissue Disorders” value (12 mg/d) was 1 (16.7) n % and the Sleep difficult (12 mg/d) was 1 (16.7) n %. It also gave a Sleep disturbance (12 mg/d) of 0 n %, a Somnolence (12 mg/d) of 0 n % and a Sore throat (12 mg/d) of 0 n %. For the same compound, the Spaced out (12 mg/d) was 0 n %, the Syncope (12 mg/d) was 0 n % and the Taste change (12 mg/d) was 0 n %. The Temporal disorientation (12 mg/d) was 0 n %, the Tingling (12 mg/d) was 0 n % and the Tiredness (12 mg/d) was 5 (83.3) n %. For the same compound, the Visual disturbance (12 mg/d) was 0 n %, the Vivid dreams (12 mg/d) was 0 n % and the Vomiting (12 mg/d) was 0 n %. The “Subjects discontinuing treatment because of adverse events” value (18 mg once daily) was 4 of the 6 subjects, the Abnormal physical sensation (18 mg/d) was 2 (33.3) n % and the “Abnormal sensation of limbs” value (18 mg/d) was 2 (33.3) n %. For the same compound, the Anger (18 mg/d) was 2 (33.3) n %, the Application site erythema (18 mg/d) was 0 n % and the Application site pruritus (18 mg/d) was 0 n %. The “At least 1 adverse event” value (18 mg/d) was 6 (100) n %, the Backache (18 mg/d) was 2 (33.3) n % and the Clamminess (18 mg/d) was 1 (16.7) n %. The Daydreaming (18 mg/d) was 2 (33.3) n %, the Disorientation (18 mg/d) was 1 (16.7) n % and the Dizziness (18 mg/d) was 2 (33.3) n %. The Drowsiness (18 mg/d) was 2 (33.3) n %, the Dyspepsia (18 mg/d) was 0 n % and the Euphoric mood (18 mg/d) was 1 (16.7) n %. For the same compound, the “Eye Disorders” value (18 mg/d) was 2 (33.3) n %, the Feeling drunk (18 mg/d) was 2 (33.3) n % and the Feeling of relaxation (18 mg/d) was 0 n %. The Floating feeling (18 mg/d) was 0 n %, the Fuzzy head (18 mg/d) was 1 (16.7) n % and the “Gastrointestinal Disorders” value (18 mg/d) was 4 (66.7) n %. The Hallucination (18 mg/d) was 2 (33.3) n %, the Headache (18 mg/d) was 4 (66.7) n % and the Heaviness of head (18 mg/d) was 1 (16.7) n %. For the same compound, the Hyperactivity (18 mg/d) was 0 n %, the Hypoaesthesia mouth (18 mg/d) was 2 (33.3) n % and the “Increased state of alertness” value (18 mg/d) was 0 n %. The Intermittent headache (18 mg/d) was 0 n %, the Lethargy (18 mg/d) was 1 (16.7) n % and the Lightheadedness (18 mg/d) was 1 (16.7) n %. The Mood altered (18 mg/d) was 0 n %, the Mood change (18 mg/d) was 0 n % and the “Musculoskeletal and Connective Tissue Disorders” value (18 mg/d) was 4 (66.7) n %. For the same compound, the Nausea (18 mg/d) was 2 (33.3) n %, the “Nervous System Disorders” value (18 mg/d) was 6 (100) n % and the Paraesthesia generalized (18 mg/d) was 1 (16.7) n %. For the same compound, the Paranoia (18 mg/d) was 2 (33.3) n %, the “Psychiatric Disorders” value (18 mg/d) was 6 (100) n % and the “Respiratory, Thoracic and Mediastinal Disorders” value (18 mg/d) was 1 (16.7) n %. The Sedation (18 mg/d) was 0 n %, the Sensation of heaviness (18 mg/d) was 1 (16.7) n % and the Sensation of pressure (18 mg/d) was 0 n %. The “Skin and Subcutaneous Tissue Disorders” value (18 mg/d) was 3 (50.0) n %, the Sleep difficult (18 mg/d) was 1 (16.7) n % and the Sleep disturbance (18 mg/d) was 1 (16.7) n %. The Somnolence (18 mg/d) was 0 n %, the Sore throat (18 mg/d) was 1 (16.7) n % and the Spaced out (18 mg/d) was 2 (33.3) n %. For the same compound, the Syncope (18 mg/d) was 1 (16.7) n %, the Taste change (18 mg/d) was 1 (16.7) n % and the Temporal disorientation (18 mg/d) was 0 n %. For the same compound, the Tingling (18 mg/d) was 0 n %, the Tiredness (18 mg/d) was 2 (33.3) n % and the Visual disturbance (18 mg/d) was 2 (33.3) n %. For the same compound, the Vivid dreams (18 mg/d) was 0 n %, the Vomiting (18 mg/d) was 1 (16.7) n % and the Abnormal physical sensation (any dose) was 2 (6.7) N (%). The “Abnormal sensation of limbs” value (any dose) was 2 (6.7) N (%), the Anger (any dose) was 2 (6.7) N (%) and the Application site erythema (any dose) was 4 (13.3) N (%). For the same compound, the Application site pruritus (any dose) was 2 (6.7) N (%), the “At least 1 adverse event” value (any dose) was 27 (90.0) N (%) and the Backache (any dose) was 2 (6.7) N (%). For the same compound, the Clamminess (any dose) was 2 (6.7) N (%), the Daydreaming (any dose) was 3 (10.0) N (%) and the Disorientation (any dose) was 2 (6.7) N (%). For the same compound, the Dizziness (any dose) was 3 (10.0) N (%), the Drowsiness (any dose) was 5 (15.7) N (%) and the Dyspepsia (any dose) was 2 (6.7) N (%). For the same compound, the Euphoric mood (any dose) was 4 (13.3) N (%), the “Eye Disorders” value (any dose) was 6 (20.0) N (%) and the Feeling drunk (any dose) was 2 (6.7) N (%). For the same compound, the Feeling of relaxation (any dose) was 7 (23.3) N (%), the Floating feeling (any dose) was 3 (10.0) N (%) and the Fuzzy head (any dose) was 3 (10.0) N (%). For the same compound, the “Gastrointestinal Disorders” value (any dose) was 11 (36.7) N (%), the Hallucination (any dose) was 2 (6.7) N (%) and the Headache (any dose) was 14 (46.7) N (%). For the same compound, the Heaviness of head (any dose) was 2 (6.7) N (%), the Hyperactivity (any dose) was 3 (10.0) N (%) and the Hypoaesthesia mouth (any dose) was 2 (6.7) N (%). The “Increased state of alertness” value (any dose) was 2 (6.7) N (%), the Intermittent headache (any dose) was 3 (10.0) N (%) and the Lethargy (any dose) was 3 (10.0) N (%). The Lightheadedness (any dose) was 9 (30.0) N (%), the Mood altered (any dose) was 2 (6.7) N (%) and the Mood change (any dose) was 2 (6.7) N (%). The “Musculoskeletal and Connective Tissue Disorders” value (any dose) was 8 (26.7) N (%), the Nausea (any dose) was 5 (16.7) N (%) and the “Nervous System Disorders” value (any dose) was 20 (66.7) N (%). For the same compound, the Paraesthesia generalized (any dose) was 2 (6.7) N (%), the Paranoia (any dose) was 2 (6.7) N (%) and the “Psychiatric Disorders” value (any dose) was 15 (50.0) N (%). The “Respiratory, Thoracic and Mediastinal Disorders” value (any dose) was 5 (16.7) N (%), the Sedation (any dose) was 2 (6.7) N (%) and the Sensation of heaviness (any dose) was 2 (6.7) N (%). The Sensation of pressure (any dose) was 2 (6.7) N (%), the “Skin and Subcutaneous Tissue Disorders” value (any dose) was 6 (20.0) N (%) and the Sleep difficult (any dose) was 2 (6.7) N (%). The Sleep disturbance (any dose) was 2 (6.7) N (%), the Somnolence (any dose) was 3 (10.0) N (%) and the Sore throat (any dose) was 3 (10.0) N (%). For the same compound, the Spaced out (any dose) was 3 (10.0) N (%), the Syncope (any dose) was 2 (6.7) N (%) and the Taste change (any dose) was 2 (6.7) N (%). The Temporal disorientation (any dose) was 2 (6.7) N (%), the Tingling (any dose) was 2 (6.7) N (%) and the Tiredness (any dose) was 13 (43.3) N (%). For the same compound, the Visual disturbance (any dose) was 4 (13.3) N (%), the Vivid dreams (any dose) was 4 (13.3) N (%) and the Vomiting (any dose) was 3 (10.0) N (%). The Nasal obstruction (male, human, in vivo, 7 days) was 2 (6.7) N (%).
